Laboratory results from patent EP2457916A1, “Compound for the covalent attachment of the chemiluminescent probe N-(4-Aminobutyl)-N-ethylisoluminol (ABEI) to target molecules and uses thereof” (DiaSorin S.p.A., priority 2010, dated 2012).

Test: Stability of compound (1a) dissolved in organic solvents, formation of the hydrolysis product (ABEI-glutaric acid) monitored by HPLC
Assay type: physicochemical
Procedure: The stability of compound (1a) dissolved in organic solvents (DMSO, acetonitrile) was evaluated at two different storage temperatures, -30°C and +4°C, by monitoring the formation of the hydrolysis product (ABEI-glutaric acid) using a chromatographic HPLC system.
Within the limits of reproducibility of the experimental determination, less than 2% of compound (1a) was hydrolysed to glutaric acid after 270 days at -30°C (Fig. 9), while less than 7% of compound (1a) was hydrolysed to acid at +4°C after 38 days (Fig. 10). This compares to the reported high instability of equivalent NHS esters which have half-lives of hours under physiological pH conditions. At 0°C and at pH 7, the half-life is typically 4-5 h [Lomant, A.J., Fairbanks, G. J. Mol. Biol. 1976, 104, 243-261], at pH 8.6 and 4°C this falls to only 10 min [Cuatrecaseas, P., Parikh, I. Biochemistry 1972, 11, 2291-2299].

compound (1a) hydrolysed to glutaric acid (solution (DMSO), after 270 days at -30°C (Fig. 9)): less than 2% | compound (1a) hydrolysed to acid (solution (DMSO), at +4°C after 38 days (Fig. 10)): less than 7% | stability of solution (in DMSO) (stored at from +4°C to -30°C): highly stable
Substance: N-(4-Aminobutyl)-N-ethylisoluminol anhydroglutarate [compound (1a)]
